Measured values reported in patent publication US10919852B2, “Immunomodulator compounds” (CHEMOCENTRYX, INC., priority 2017, dated 2021).
pIC50: −log10 of the molar value.

These molecules were tested against human PD-L1 / Human PD-1 (Homo sapiens (Human), UniProt Q9NZQ7) (assay: Enzyme-Linked Immunosorbent Assay (ELISA), PD-1/PD-L1 binding). Conditions: plate-coated human PD-L1, biotinylated human PD-1.
Outline: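 Compound dilutions (1:5 series) competed with 0.3 μg/mL biotin-labelled human PD-1 for PD-L1 immobilised at […], for 1 h at 37 °C. Read-out was A450 after streptavidin-HRP and a 20 min TMB reaction, stopped with 2 N H2SO4.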

Chain of human PD-L1 / Human PD-1 (Q9NZQ7 19-239): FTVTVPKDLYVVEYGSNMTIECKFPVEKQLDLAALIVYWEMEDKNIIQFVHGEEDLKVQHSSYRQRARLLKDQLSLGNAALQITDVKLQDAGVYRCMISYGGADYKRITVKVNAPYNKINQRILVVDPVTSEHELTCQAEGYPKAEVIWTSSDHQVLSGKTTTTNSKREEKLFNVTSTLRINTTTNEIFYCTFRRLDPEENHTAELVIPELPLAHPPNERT

SMILES | pIC50
Cc1c(OCCCN2CCC(CO)CC2)cccc1-c1cccc2c1CC[C@@H]2Oc1cc(OCc2cncc(C#N)c2)c(CN[C@H](C(=O)O)[C@@H](C)O)cc1Cl | > 8.30
Cc1c(OCCCN2CC(O)C2)cccc1-c1cccc2c1CC[C@@H]2Oc1cc(OCc2cncc(C#N)c2)c(CN[C@H](C(=O)O)[C@@H](C)O)cc1Cl | > 8.30
C[C@@](CO)(NCc1cc(Cl)c(O[C@H]2CCc3c(-c4cccc(OCCCN5CCC(O)CC5)c4Cl)cccc32)cc1OCc1cncc(C#N)c1)C(=O)O | > 8.30
N#Cc1cncc(COc2cc(O[C@H]3CCc4c(-c5cccc(OCCCN6CCC(O)CC6)c5Cl)cccc43)c(Cl)cc2CN[C@@H](CO)C(=O)O)c1 | > 8.30
N#Cc1cncc(COc2cc(O[C@H]3CCc4c(-c5cccc(OCCCN6CC7(CC(O)C7)C6)c5Cl)cccc43)c(Cl)cc2CN[C@H]2CCC[C@@H]2O)c1 | > 8.30
N#Cc1cncc(COc2cc(O[C@H]3CCc4c(-c5cccc(OCCCN6CC7(CC(O)C7)C6)c5Cl)cccc43)c(Cl)cc2CN2CCCC3(C2)NC(=O)NC3=O)c1 (stereo partly shown) | 6.30 to 8.30
N#Cc1cncc(COc2cc(O[C@H]3CCc4c(-c5cccc(OCCCN6CC7(CC(O)C7)C6)c5Cl)cccc43)c(Cl)cc2CN2CCC3(C2)NC(=O)NC3=O)c1 (stereo partly shown) | 6.30 to 8.30
N#Cc1cc(C#N)cc(COc2cc(O[C@H]3CCc4c(-c5cccc(OCCCN6CCC(F)CC6)c5Cl)cccc43)c(Cl)cc2CNC[C@H]2CCC(=O)N2)c1 | > 8.30
N#Cc1cncc(COc2cc(O[C@H]3CCc4c(-c5cccc(OCCC(N)=O)c5Cl)cccc43)c(Cl)cc2CN[C@@H]2CCCC[C@@H]2O)c1 | 6.30 to 8.30
N#Cc1cncc(COc2cc(O[C@H]3CCc4c(-c5cccc(OCCC(N)=O)c5Cl)cccc43)c(Cl)cc2CNC[C@H]2CCC(=O)N2)c1 | 6.30 to 8.30
N#Cc1cncc(COc2cc(O[C@H]3CCc4c(-c5cccc(OCCCN6CC7(CC(F)C7)C6)c5Cl)cccc43)c(Cl)cc2CN2CCC3(C2)NC(=O)NC3=O)c1 (stereo partly shown) | 6.30 to 8.30
Cc1c(OCCCN2CCC(F)CC2)cccc1-c1cccc2c1CC[C@@H]2Oc1cc(OCc2cc(C#N)cc(C#N)c2)c(CN[C@@H]2CCC[C@@H]2O)cc1Cl | > 8.30
N#Cc1cncc(COc2cc(O[C@H]3CCc4c(-c5cccc(OCCCN6CCC(F)CC6)c5Cl)cccc43)c(Cl)cc2CN[C@H]2CC[C@@H]2O)c1 | > 8.30
Cc1c(OCCCN2CCC(F)CC2)cccc1-c1cccc2c1CC[C@@H]2Oc1cc(OCc2cc(C#N)cc(C#N)c2)c(CN[C@H]2CCC(=O)NC2)cc1Cl | 6.30 to 8.30
N#Cc1cncc(COc2cc(O[C@H]3CCc4c(-c5cccc(OCCCN6CC7(CC(F)C7)C6)c5Cl)cccc43)c(Cl)cc2CN[C@H]2CCC[C@H]2O)c1 | > 8.30
N#Cc1cncc(COc2cc(O[C@H]3CCc4c(-c5cccc(OCCCN6CCC6)c5Cl)cccc43)c(Cl)cc2CNC[C@H]2CCC(=O)N2)c1 | > 8.30
N#Cc1cncc(COc2cc(O[C@H]3CCc4c(-c5cccc(OCCCN6CC7(CC(F)C7)C6)c5Cl)cccc43)c(Cl)cc2CNC[C@@H]2CCC(=O)N2)c1 | > 8.30
CN1CCC(COc2cccc(-c3cccc4c3CC[C@@H]4Oc3cc(OCc4cncc(C#N)c4)c(CNC[C@H]4CCC(=O)N4)cc3Cl)c2Cl)C1 (stereo partly shown) | > 8.30
N#Cc1cncc(COc2cc(O[C@H]3CCc4c(-c5cccc(OCCCN6CC7(C6)CC(F)(F)C7)c5Cl)cccc43)c(Cl)cc2CN[C@@H]2CCC[C@H]2O)c1 | > 8.30
N#Cc1cncc(COc2cc(O[C@H]3CCc4c(-c5cccc(OCCCN6CC7(C6)CC(F)(F)C7)c5Cl)cccc43)c(Cl)cc2CN[C@H]2CCC[C@H]2O)c1 | > 8.30
N#Cc1cncc(COc2cc(O[C@H]3CCc4c(-c5cccc(OCCCN6CC7(C6)CC(F)(F)C7)c5Cl)cccc43)c(Cl)cc2CN2CC3(C2)NC(=O)NC3=O)c1 | 6.30 to 8.30
Cc1c(OCCCN2CC3(CCC3)C2)cccc1-c1cccc2c1CC[C@@H]2Oc1cc(OCc2cc(C#N)cc(C#N)c2)c(CNC[C@@H]2CCC(=O)N2)cc1Cl | > 8.30
Cc1c(OCCCN2CCC(C)(F)CC2)cccc1-c1cccc2c1CC[C@@H]2Oc1cc(OCc2cncc(C#N)c2)c(CNC[C@H]2CCC(=O)N2)cc1Cl | 6.30 to 8.30
Cc1c(OCCCN2CCC(C)(F)CC2)cccc1-c1cccc2c1CC[C@@H]2Oc1cc(OCc2cncc(C#N)c2)c(CNC[C@@H]2CCC(=O)N2)cc1Cl | > 8.30
N#Cc1cncc(COc2cc(O[C@H]3CCc4c(-c5cccc(OCCCN6CCC(F)CC6)c5Cl)cccc43)c(Cl)cc2CN[C@@H]2CC[C@H]2O)c1 | > 8.30
Cc1c(OCCCN2CCC(C)(F)CC2)cccc1-c1cccc2c1CC[C@@H]2Oc1cc(OCc2cncc(C#N)c2)c(CN[C@@H]2CCC(=O)NC2)cc1Cl | > 8.30
N#Cc1cncc(COc2cc(O[C@H]3CCc4c(-c5cccc(OCCCN6CC7(CC(F)C7)C6)c5Cl)cccc43)c(Cl)cc2CN[C@@H]2CC[C@H]2O)c1 | > 8.30
Cc1c(OCCCN2CC3(CC(F)C3)C2)cccc1-c1cccc2c1CC[C@@H]2Oc1cc(OCc2cc(C#N)cc(C#N)c2)c(CN[C@H]2CCC(=O)NC2)cc1Cl | > 8.30

The remaining lines, values ahead:

pIC50 | SMILES
> 8.30 | N#Cc1cncc(COc2cc(O[C@H]3CCc4c(-c5cccc(OCCCN6CCC(F)CC6)c5Cl)cccc43)c(Cl)cc2CN[C@H]2CCC(=O)NC2)c1
> 8.30 | N#Cc1cncc(COc2cc(O[C@H]3CCc4c(-c5cccc(OCCCN6CCC(F)CC6)c5Cl)cccc43)c(Cl)cc2CN[C@@H]2CCC(=O)NC2)c1
> 8.30 | N#Cc1cncc(COc2cc(O[C@H]3CCc4c(-c5cccc(OCCCN6CC7(CC(F)C7)C6)c5Cl)cccc43)c(Cl)cc2CN[C@@H]2CCC[C@@H]2O)c1
> 8.30 | N#Cc1cncc(COc2cc(O[C@H]3CCc4c(-c5cccc(OCCCN6CC7(CC(F)C7)C6)c5Cl)cccc43)c(Cl)cc2CN[C@@H]2CCC[C@H]2O)c1
> 8.30 | Cc1c(OCCCN2CCCCC2)cccc1-c1cccc2c1CC[C@@H]2Oc1cc(OCc2cc(C#N)cc(C#N)c2)c(CNC[C@H]2CCC(=O)N2)cc1Cl
> 8.30 | Cc1c(OCCCN2CCCCC2)cccc1-c1cccc2c1CC[C@@H]2Oc1cc(OCc2cc(C#N)cc(C#N)c2)c(CN[C@@H]2CCCC[C@@H]2O)cc1Cl
6.30 to 8.30 | Cc1c(OCCCN2CCC(F)CC2)cccc1-c1cccc2c1CC[C@@H]2Oc1cc(OCc2cc(C#N)cc(C#N)c2)c(CN2CCC3(C2)NC(=O)NC3=O)cc1Cl (stereo partly shown)
> 8.30 | Cc1c(OCCCN2CCC(F)CC2)cccc1-c1cccc2c1CC[C@@H]2Oc1cc(OCc2cc(C#N)cc(C#N)c2)c(CN[C@@H]2CCOC[C@H]2O)cc1Cl
> 8.30 | Cc1c(OCCCN2CCC(F)CC2)cccc1-c1cccc2c1CC[C@@H]2Oc1cc(OCc2cc(C#N)cc(C#N)c2)c(CN[C@@H]2CCC[C@H]2O)cc1Cl
> 8.30 | Cc1c(OCCCN2CCC(F)CC2)cccc1-c1cccc2c1CC[C@@H]2Oc1cc(OCc2cc(C#N)cc(C#N)c2)c(CN[C@H]2CCC[C@@H]2O)cc1Cl
> 8.30 | N#Cc1cncc(COc2cc(O[C@H]3CCc4c(-c5cccc(OCCCN6CCC(F)CC6)c5Cl)cccc43)c(Cl)cc2CN2CC3(C2)NC(=O)NC3=O)c1
> 8.30 | Cc1c(OCCCN2CCC(F)CC2)cccc1-c1cccc2c1CC[C@@H]2Oc1cc(OCc2cc(C#N)cc(C#N)c2)c(CN[C@H]2CCC[C@H]2O)cc1Cl
> 8.30 | Cc1c(OCCCN2CCC(F)CC2)cccc1-c1cccc2c1CC[C@@H]2Oc1cc(OCc2cc(C#N)cc(C#N)c2)c(CN[C@H]2CCOC[C@H]2O)cc1Cl
6.30 to 8.30 | Cc1c(OCCCN2CCC(F)CC2)cccc1-c1cccc2c1CC[C@@H]2Oc1cc(OCc2cc(C#N)cc(C#N)c2)c(CN2CC3(C2)NC(=O)NC3=O)cc1Cl
6.30 to 8.30 | Cc1c(OCCCN2CCC(C)(F)CC2)cccc1-c1cccc2c1CC[C@@H]2Oc1cc(OCc2cc(C#N)cc(C#N)c2)c(CNC[C@H]2CCC(=O)N2)cc1Cl
6.30 to 8.30 | Cc1c(OCCCN2CCC(C)(F)CC2)cccc1-c1cccc2c1CC[C@@H]2Oc1cc(OCc2cc(C#N)cc(C#N)c2)c(CNC[C@@H]2CCC(=O)N2)cc1Cl
> 8.30 | N#Cc1cncc(COc2cc(O[C@H]3CCc4c(-c5cccc(OCCCN6CCC6)c5Cl)cccc43)c(Cl)cc2CN[C@@H]2CCCC[C@@H]2O)c1
> 8.30 | N#Cc1cncc(COc2cc(O[C@H]3CCc4c(-c5cccc(OCCCN6CC7(CC(F)C7)C6)c5Cl)cccc43)c(Cl)cc2CN[C@H]2CCC[C@@H]2O)c1
6.30 to 8.30 | N#Cc1cncc(COc2cc(O[C@H]3CCc4c(-c5cccc(OCCCN6CC7(CC(F)C7)C6)c5Cl)cccc43)c(Cl)cc2CN2CC3(C2)NC(=O)NC3=O)c1
> 8.30 | N#Cc1cncc(COc2cc(O[C@H]3CCc4c(-c5cccc(OCCCN6CC7(CC(F)C7)C6)c5Cl)cccc43)c(Cl)cc2CNC[C@H]2CCC(=O)N2)c1
> 8.30 | CN1CCC(COc2cccc(-c3cccc4c3CC[C@@H]4Oc3cc(OCc4cncc(C#N)c4)c(CN[C@@H]4CCCC[C@@H]4O)cc3Cl)c2Cl)C1 (stereo partly shown)
> 8.30 | N#Cc1cncc(COc2cc(O[C@H]3CCc4c(-c5cccc(OCCCN6CC7(C6)CC(F)(F)C7)c5Cl)cccc43)c(Cl)cc2CN[C@@H]2CCC[C@@H]2O)c1
6.30 to 8.30 | Cc1c(OCCCN2CC3(CCC3)C2)cccc1-c1cccc2c1CC[C@@H]2Oc1cc(OCc2cc(C#N)cc(C#N)c2)c(CNC[C@H]2CCC(=O)N2)cc1Cl
> 8.30 | N#Cc1cncc(COc2cc(O[C@H]3CCc4c(-c5cccc(OCCCN6CC7(C6)CC(F)(F)C7)c5Cl)cccc43)c(Cl)cc2CN[C@H]2CCC[C@@H]2O)c1
> 8.30 | Cc1c(OCCCN2CCC(C)CC2)cccc1-c1cccc2c1CC[C@@H]2Oc1cc(OCc2cc(C#N)cc(C#N)c2)c(CNC[C@H]2CCC(=O)N2)cc1Cl
> 8.30 | Cc1c(OCCCN2CCC(C)CC2)cccc1-c1cccc2c1CC[C@@H]2Oc1cc(OCc2cc(C#N)cc(C#N)c2)c(CNC[C@@H]2CCC(=O)N2)cc1Cl
> 8.30 | Cc1c(OCCCN2CC3(CC(O)C3)C2)cccc1-c1cccc2c1CC[C@@H]2Oc1cc(OCc2cc(C#N)cc(C#N)c2)c(CNC[C@H]2CCC(=O)N2)cc1Cl
6.30 to 8.30 | Cc1c(OCCCN2CC3(C2)CC(F)(F)C3)cccc1-c1cccc2c1CC[C@@H]2Oc1cc(OCc2cc(C#N)cc(C#N)c2)c(CNC[C@H]2CCC(=O)N2)cc1Cl
6.30 to 8.30 | Cc1c(OCCCN2CCC(C)(F)CC2)cccc1-c1cccc2c1CC[C@@H]2Oc1cc(OCc2cncc(C#N)c2)c(CN[C@H]2CCC(=O)NC2)cc1Cl
> 8.30 | N#Cc1cncc(COc2cc(O[C@H]3CCc4c(-c5cccc(OCCCN6CC7(CC(F)C7)C6)c5Cl)cccc43)c(Cl)cc2CN[C@H]2CC[C@@H]2O)c1
